From PMC12377721 (2025) come the findings set out here.

Experiment in all cases: ITC
Common to all, as to conditions: 500 mM NaCl, 20 mM MgCl2; 50 mM Tris pH 7.6, 25 °C

The test system of test [1] is 1301b_v1 (DNA, aptamer) CGACGTTTGCGATGAGAACGAAGTTCGAAGGTCG
The subject of test [2] is wild-type 1301b (DNA, aptamer) ACGACGTTTGCGATGAGAAACGTATGGTTTCGAAGGTCGT
Test [3] relates to 9/10/14/16^OMe (DNA, aptamer, 2'-O-methyl at G9, C10, G14, G16) CGACGTTTGCGATGAGAACGAAGTTCGAAGGTCG

On to `Cc1cn([C@H]2C[C@H](O)[C@@H](COP(=O)(O)OP(=O)(O)OP(=O)(O)O)O2)c(=O)[nH]c1=O`, for which, in test [1], the binding entry is on record as “no”.
Turning to `Nc1ccn([C@@H]2O[C@H](COP(=O)(O)OP(=O)(O)OP(=O)(O)O)[C@@H](O)[C@H]2O)c(=O)n1`, the binding result in test [1] is reported as “no”.
As for `Nc1nc2c(ncn2[C@@H]2O[C@H](COP(=O)(O)OP(=O)(O)OP(=O)(O)O)[C@@H](O)[C@H]2O)c(=O)[nH]1`, the binding result in test [1] is recorded as “no”.
In general, KD refers to the free concentration of one partner at which half of the binding sites on the other are occupied at equilibrium, for simple one-to-one binding. Read a low KD as higher affinity. On to `Nc1ncnc2c1ncn2[C@@H]1O[C@H](COP(=O)(O)O)[C@@H](O)[C@H]1O`, for which the KD in test [1] stood at 13.2 ± 2.4 µM.
`Nc1ncnc2c1ncn2[C@@H]1O[C@H](COP(=O)(O)OP(=O)(O)O)[C@@H](O)[C@H]1O` had a KD in test [1] of 4.4 ± 0.3 µM.
Regarding `Nc1ncnc2c1ncn2[C@@H]1O[C@H](COP(=O)(O)OP(=O)(O)OP(=O)(O)O)[C@@H](O)[C@H]1O`, the KD amounted to 1.9 ± 0.1 µM in test [1], 2.7 ± 0.6 µM in test [2] and 3.8 ± 0.4 µM in test [3].
In test [1], `Nc1ncnc2c1ncn2[C@H]1C[C@H](O)[C@@H](COP(=O)(O)OP(=O)(O)OP(=O)(O)O)O1` had a KD of 3.4 ± 0.2 µM.
With `O=c1ccn([C@@H]2O[C@H](COP(=O)(O)OP(=O)(O)OP(=O)(O)O)[C@@H](O)[C@H]2O)c(=O)[nH]1`, the binding entry in test [1] was “no”.
